From BindingDB's records for doi:10.1021/cb500956g (University of North Carolina At Chapel Hill, 2015)

Legend:
Experiment in all cases: AlphaScreen Assay
Details in all cases: pH 8
[1] = target: T1, Isoform 4 of Lethal(3)malignant brain tumor-like protein 1 (4) (Homo sapiens, UniProt Q9Y468)
T1 sequence (Q9Y468 whole entry): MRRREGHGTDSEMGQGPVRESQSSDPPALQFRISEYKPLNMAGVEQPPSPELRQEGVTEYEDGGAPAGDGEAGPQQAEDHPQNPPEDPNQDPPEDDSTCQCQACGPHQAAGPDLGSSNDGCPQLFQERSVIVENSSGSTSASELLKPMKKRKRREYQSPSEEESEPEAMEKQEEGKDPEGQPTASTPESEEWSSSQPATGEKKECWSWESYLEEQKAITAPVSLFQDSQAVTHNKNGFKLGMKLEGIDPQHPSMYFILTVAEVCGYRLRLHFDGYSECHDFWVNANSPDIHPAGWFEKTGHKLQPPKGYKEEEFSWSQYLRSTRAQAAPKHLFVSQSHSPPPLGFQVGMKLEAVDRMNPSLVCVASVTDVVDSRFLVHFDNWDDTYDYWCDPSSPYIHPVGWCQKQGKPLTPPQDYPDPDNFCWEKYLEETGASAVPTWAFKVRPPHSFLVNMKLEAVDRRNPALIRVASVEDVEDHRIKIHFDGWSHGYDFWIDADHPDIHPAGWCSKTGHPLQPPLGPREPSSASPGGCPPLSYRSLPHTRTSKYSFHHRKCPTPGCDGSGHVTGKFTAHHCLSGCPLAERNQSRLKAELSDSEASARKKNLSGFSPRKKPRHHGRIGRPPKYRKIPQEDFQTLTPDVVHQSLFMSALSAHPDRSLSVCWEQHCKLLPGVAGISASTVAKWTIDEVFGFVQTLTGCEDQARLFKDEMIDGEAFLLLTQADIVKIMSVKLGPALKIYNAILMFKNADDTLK
Description: (§1) In brief, compound plates (1 μL at 10 mM highest concentration; 3-fold, 10-point dilutions in DMSO) were diluted in 1X assay buffer (20 mM TRIS pH 8.0, 25 mM NaCl, 2 mM DTT and 0.05% Tween-20) to 1 mM using a Multimek robotic pipettor (Nanoscreen), and 1 μL was spotted into the wells of 384-well low-volume Proxiplates (PerkinElmer). To these plates was added 9 μL of protein−peptide mix in a 1X assay buffer by Multidrop (Thermo) to bring the final compound concentration to 100 μM, and this was incubated for 30 min at RT. Next, 2 μL of a 1:1 mixture of streptavidin-conjugate donor and nickel-chelate acceptor beads (45μg/mL in 1X assay buffer) were added, and the plates were allowed to incubate for an additional 30 min in the dark at RT. After incubation, the plates were read on an EnVision multilabel reader equipped with an HTS AlphaScreen laser (PerkinElmer).

PHD finger protein 23 = PHD finger protein 23 (Homo sapiens, UniProt Q9BUL5)
Description: as §1

[2] = target: T2, Chromobox protein homolog 7 (Homo sapiens, UniProt O95931)
T2 sequence (O95931 whole entry): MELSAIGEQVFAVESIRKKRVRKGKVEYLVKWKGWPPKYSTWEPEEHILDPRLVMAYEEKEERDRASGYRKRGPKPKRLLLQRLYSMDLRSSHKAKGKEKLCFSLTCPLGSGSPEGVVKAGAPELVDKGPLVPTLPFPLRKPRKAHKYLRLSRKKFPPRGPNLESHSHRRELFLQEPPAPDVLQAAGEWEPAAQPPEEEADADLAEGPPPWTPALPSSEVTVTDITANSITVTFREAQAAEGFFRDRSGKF
Description: as §1

Measured: IC50

Sequence of PHD finger protein 23 (Q9BUL5 whole entry): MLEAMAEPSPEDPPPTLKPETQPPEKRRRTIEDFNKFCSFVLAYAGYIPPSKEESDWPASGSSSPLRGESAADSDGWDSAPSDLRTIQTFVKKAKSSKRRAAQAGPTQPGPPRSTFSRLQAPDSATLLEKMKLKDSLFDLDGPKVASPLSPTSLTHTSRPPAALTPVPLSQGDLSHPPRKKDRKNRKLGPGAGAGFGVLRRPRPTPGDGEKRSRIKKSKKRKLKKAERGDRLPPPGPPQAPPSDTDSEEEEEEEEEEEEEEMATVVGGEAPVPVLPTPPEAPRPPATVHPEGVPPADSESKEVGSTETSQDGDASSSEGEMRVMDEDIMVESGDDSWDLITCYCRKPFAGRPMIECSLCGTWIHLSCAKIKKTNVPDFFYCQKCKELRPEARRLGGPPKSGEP

CC(C)(C)NCCCNC(=O)c1ccc(Br)cc1 [4-Bromo-N-(3-(tert-butylamino)propyl)benzamide (15)]
> 100 µM: [1] | PHD finger protein 23 | [2]

CC(C)(C)NCCCNC(=O)c1cc(Br)ccn1 [4-Bromo-N-(3-(tert-butylamino)propyl)picolinamide (24)]
> 100 µM: [1] | PHD finger protein 23 | [2]

CC(C)(C)NCCCCNC(=O)c1cccc(Br)c1 [3-Bromo-N-(4-(tert-butylamino)butyl)benzamide (11)]
> 100 µM: [1] | PHD finger protein 23 | [2]

CC(C)(C)NCCCNC(=O)c1ccccc1Br [2-Bromo-N-(3-(tert-butylamino)propyl)benzamide (16)]
> 100 µM: [1] | PHD finger protein 23 | [2]

CC(C)(C)NCCCCCNC(=O)c1cccc(Br)c1 [3-Bromo-N-(5-(tert-butylamino)pentyl)benzamide (12)]
> 100 µM: [1] | PHD finger protein 23 | [2]

CC(C)(C)N1CCN(C(=O)c2cccc(Br)c2)CC1 [(3-Bromophenyl)(4-(tert-butyl)piperazin-1-yl)methanone (10)]
> 100 µM: [1] | PHD finger protein 23 | [2]

CC(C)(C)NCCCNC(=O)c1cc(C(F)(F)F)ccn1 [N-(3-(Tert-butylamino)propyl)-4-(trifluoromethyl)picolinamide (25)]
> 100 µM: [1] | PHD finger protein 23 | [2]
